# Measured values from patent publication US20200331850A1, “NOVEL SULFONAMIDE CARBOXAMIDE COMPOUNDS” (Inflazome Limited, priority 2017, published 2020).
# Where a name gives a salt, the structure may show the parent alone.
# Target: T1, NLRP3 (Homo sapiens, UniProt Q96P20)
# Test: Human whole blood IL1β release assay (LPS + nigericin, AlphaLisa IL-1β)
# Format: cell-based
# Design: Plate out 80 μl of whole blood containing 1βg/ml of LPS in 96-well, clear bottom cell culture plate; from tissue; host or cells: human whole blood from healthy donors, LPS-primed and nigericin-stimulated
# Settings: NLRP3 inhibitory activity in human whole blood, IL-1β release, 10 μM nigericin, read-out: HWB IC50
# Procedure: For systemic delivery, the ability to inhibit NLRP3 when the compounds are present within the bloodstream is of great importance. For this reason, the NLRP3 inhibitory activity of a number of compounds in human whole blood was investigated in accordance with the following protocol.
# Human whole blood in Li-heparin tubes was obtained from healthy donors from a volunteer donor panel. • 1. Plate out 80 μl of whole blood containing 1βg/ml of LPS in 96-well, clear bottom cell culture plate (Corning #3585) • 2. Add 10 μl compound (8 points half-log dilution with 10 μM top dose) or vehicle (DMSO 0.1% FAC) to the appropriate wells • 3. Incubate for 3 hrs at 37° C., 5% CO2 • 4. Add 10 μl Nigericin (Sigma # N7143) (10 μM FAC) to all wells • 5. Incubate for 1 hr at 37° C., 5% CO2 • 6. At the end of the incubation period, spin plates at 300×g for 5 mins to pellet cells and remove 20 μl of supernatant and add to 96-well v-bottom plates for IL-1β analysis (note: these plates containing the supernatants can be stored at −80° C. to be analysed at a later date) • 7. IL-1β was measured according to the manufacturer protocol (Perkin Elmer-AlphaLisa IL-1 Kit AL220F-5000) • 8. IC50 data is fitted to a non-linear regression equation (log inhibitor vs response-variable slope 4-parameters)
# T1 sequence (Q96P20 whole entry): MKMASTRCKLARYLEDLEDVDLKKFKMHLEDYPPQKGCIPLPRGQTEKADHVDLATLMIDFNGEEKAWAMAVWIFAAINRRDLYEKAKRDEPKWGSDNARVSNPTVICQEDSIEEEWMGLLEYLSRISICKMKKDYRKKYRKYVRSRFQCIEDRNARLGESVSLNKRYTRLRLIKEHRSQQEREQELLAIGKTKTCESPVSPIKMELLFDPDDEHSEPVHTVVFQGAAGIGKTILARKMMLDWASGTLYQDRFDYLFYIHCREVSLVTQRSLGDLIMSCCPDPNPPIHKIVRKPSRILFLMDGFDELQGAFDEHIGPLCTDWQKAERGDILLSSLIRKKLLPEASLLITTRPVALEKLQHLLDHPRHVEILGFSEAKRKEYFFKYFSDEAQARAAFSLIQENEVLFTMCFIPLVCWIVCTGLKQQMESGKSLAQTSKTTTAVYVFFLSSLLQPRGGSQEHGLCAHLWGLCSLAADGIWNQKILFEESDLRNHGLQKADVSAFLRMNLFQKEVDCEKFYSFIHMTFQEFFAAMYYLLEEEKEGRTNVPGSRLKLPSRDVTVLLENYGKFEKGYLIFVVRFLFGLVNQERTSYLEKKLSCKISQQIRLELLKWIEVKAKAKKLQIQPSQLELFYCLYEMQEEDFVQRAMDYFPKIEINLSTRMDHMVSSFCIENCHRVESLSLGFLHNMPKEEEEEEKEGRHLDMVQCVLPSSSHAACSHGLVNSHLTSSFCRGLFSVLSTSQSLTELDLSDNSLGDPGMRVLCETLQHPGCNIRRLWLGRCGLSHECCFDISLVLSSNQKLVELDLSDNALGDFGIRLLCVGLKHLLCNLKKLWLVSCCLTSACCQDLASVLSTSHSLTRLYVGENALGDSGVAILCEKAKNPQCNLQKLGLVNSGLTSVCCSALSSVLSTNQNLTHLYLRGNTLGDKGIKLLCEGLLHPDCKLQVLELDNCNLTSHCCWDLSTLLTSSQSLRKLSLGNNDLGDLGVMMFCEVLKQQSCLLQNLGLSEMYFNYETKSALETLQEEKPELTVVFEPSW
row,IC50 [nM],SMILES
1,≤ 7500,"CC(C)N1CC2(COC(CS(=O)(=O)NC(=O)Nc3c4c(cc5c3CCC5)CCC4)C2)C1 (stereo not drawn) [Example 77, N-((1,2,3,5,6,7-Hexahydro-s-indacen-4-yl)carbamoyl)-1-(2-isopropyl-6-oxa-2-azaspiro[3.4]octan-7-yl)methanesulfonamide, Potassium Salt]"
2,≤ 5000,"CN(C)CCCCS(=O)(=O)NC(=O)Nc1c2c(cc3c1CCC3)CCC2 [Example 82, 4-(Dimethylamino)-N-((1,2,3,5,6,7-hexahydro-s-indacen-4-yl)carbamoyl)butane-1-sulfonamide]"

# Target: T1, NLRP3
# Test: THP-1 cells pyroptosis assay (LPS + nigericin, resazurin readout)
# Format: cell-based
# Design: Seed THP-1 cells (25,000 cells/well) containing 1.0 μg/ml LPS in 40 μl of RPMI medium; host or cells: THP-1 cells, LPS-primed and nigericin-stimulated
# Settings: NLRP3 inhibitory activity in THP-1 cells, 1.0 μg/ml LPS, 5 μM nigericin
# Source text: It is well established that the activation of NLRP3 leads to cell pyroptosis and this feature plays an important part in the manifestation of clinical disease (Yan-gang Liu et al., Cell Death & Disease, 2017, 8(2), e2579; Alexander Wree et al., Hepatology, 2014, 59(3), 898-910; Alex Baldwin et al., Journal of Medicinal Chemistry, 2016, 59(5), 1691-1710; Ema Ozaki et al., Journal of Inflammation Research, 2015, 8, 15-27; Zhen Xie & Gang Zhao, Neuroimmunology Neuroinflammation, 2014, 1(2), 60-65; Mattia Cocco et al., Journal of Medicinal Chemistry, 2014, 57(24), 10366-10382; T. Satoh et al., Cell Death & Disease, 2013, 4, e644). Therefore, it is anticipated that inhibitors of NLRP3 will block pyroptosis, as well as the release of pro-inflammatory cytokines (e.g. IL-1β) from the cell. THP-1 cells (ATCC # TIB-202) were grown in RPMI containing L-glutamine (Gibco #11835) supplemented with 1 mM sodium pyruvate (Sigma # S8636) and penicillin (100 units/ml)/streptomycin (0.1 mg/ml) (Sigma # P4333) in 10% Fetal Bovine Serum (FBS) (Sigma # F0804). The cells were routinely passaged and grown to confluency (˜10^6 cells/ml). On the day of the experiment, THP-1 cells were harvested and resuspended into RPMI medium (without FBS). The cells were then counted and viability (>90%) checked by Trypan blue (Sigma # T8154). Appropriate dilutions were made to give a concentration of 625,000 cells/ml. To this diluted cell solution was added LPS (Sigma # L4524) to give a […] Final Assay Concentration (FAC). 40 μl of the final preparation was aliquoted into each well of a 96-well plate. The plate thus prepared was used for compound screening. The following method step-by-step assay was followed for compound screening. • 1. Seed THP-1 cells (25,000 cells/well) containing 1.0 μg/ml LPS in 40 μl of RPMI medium (without FBS) in 96-well, black walled, clear bottom cell culture plates coated with poly-D-lysine (VWR #734-0317) • 2. Add 5 μl compound (8 points half-log dilution, with 10 μM top dose) or vehicle (DMSO 0.1% FAC) to the appropriate wells • 3. […] Add 5 μl nigericin (Sigma # N7143) (FAC 5 μM) to all wells • 5. […] At the end of the incubation period, spin plates at 300×g for 3 mins and remove supernatant • 7. Then add 50 μl of resazurin (Sigma # R7017) (FAC 100 μM resazurin in RPMI medium without FBS) and incubate plates for a further 1-2 hrs at 37° C. and 5% CO2 • 8. Plates were read in an Envision reader at Ex 560 nm and Em 590 nm • 9. IC50 data is fitted to a non-linear regression equation (log inhibitor vs response-variable slope 4-parameters) The results of the pyroptosis assay performed are summarised in Table 1 below as THP IC50.
row,SMILES,IC50 [nM]
1,"CC(=O)NCCS(=O)(=O)NC(=O)Nc1c2c(cc3c1CCC3)CCC2 [Example 6, N-(2-(N-((1,2,3,5,6,7-Hexahydro-s-indacen-4-yl)carbamoyl)sulfamoyl)ethyl)acetamide, Potassium Salt]",2000 to 10000
2,"COCCCS(=O)(=O)NC(=O)Nc1c(-c2ccnc(C#N)c2)cc(F)cc1C(C)C [Example 49, N-((2-(2-Cyanopyridin-4-yl)-4-fluoro-6-isopropylphenyl)carbamoyl)-3-methoxypropane-1-sulfonamide]",2000 to 10000
3,"CN(C)C1CCN(CCCS(=O)(=O)NC(=O)Nc2c3c(cc4c2CCC4)CCC3)CC1 [Example 2, 3-(4-(Dimethylamino)piperidin-1-yl)-N-((1,2,3,5,6,7-hexahydro-s-indacen-4-yl)carbamoyl)propane-1-sulfonamide, potassium salt]",2000 to 10000
4,"O=C(Nc1c(-c2ccncc2)cc(F)c2c1CCC2)NS(=O)(=O)Cc1cccnc1 [Example 56, N-((7-Fluoro-5-(pyridin-4-yl)-2,3-dihydro-1H-inden-4-yl)carbamoyl)-1-(pyridin-3-yl)methanesulfonamide]",2000 to 10000
5,"CC(CN(C)C)S(=O)(=O)NC(=O)Nc1c2c(cc3c1CCC3)CCC2 (stereo not drawn) [Example 26, 1-(Dimethylamino)-N-((1,2,3,5,6,7-hexahydro-s-indacen-4-yl)carbamoyl)propane-2-sulfonamide, potassium salt]",2000 to 10000
6,"O=C(Nc1c2c(cc3c1CCC3)CCC2)NS(=O)(=O)CCCN1CCOCC1 [Example 15, N-((1,2,3,5,6,7-Hexahydro-s-indacen-4-yl)carbamoyl)-3-morpholinopropane-1-sulfonamide, Potassium Salt]",1600 to 2000
7,"CCN1CC2(CC(S(=O)(=O)NC(=O)Nc3c4c(cc5c3CCC5)CCC4)C2)C1 [Example 38, 2-Ethyl-N-((1,2,3,5,6,7-hexahydro-s-indacen-4-yl)carbamoyl)-2-azaspiro[3.3]heptane-6-sulfonamide, potassium salt]",2000 to 10000
8,"CN1CCC(CS(=O)(=O)NC(=O)Nc2c3c(cc4c2CCC4)CCC3)CC1 [Example 22, N-((1,2,3,5,6,7-Hexahydro-s-indacen-4-yl)carbamoyl)-1-(1-methylpiperidin-4-yl)methanesulfonamide, Potassium Salt]",2000 to 10000
9,"COc1cc(-c2ccc3c(c2NC(=O)NS(=O)(=O)Cc2cccnc2)CCC3)ccn1 [Example 55, N-((5-(2-Methoxypyridin-4-yl)-2,3-dihydro-1H-inden-4-yl)carbamoyl)-1-(pyridin-3-yl)methanesulfonamide]",2000 to 10000
10,"CC(C)c1cc(F)cc(-c2ccnc(C#N)c2)c1NC(=O)NS(=O)(=O)CC1CCN(C)C1 (stereo not drawn) [Example 57, N-((2-(2-Cyanopyridin-4-yl)-4-fluoro-6-isopropylphenyl)carbamoyl)-1-(1-methylpyrrolidin-3-yl)methanesulfonamide]",2000 to 10000
11,"O=C(Nc1c2c(cc3c1CCC3)CCC2)NS(=O)(=O)CCCCN1CCOCC1 [Example 9, N-((1,2,3,5,6,7-Hexahydro-s-indacen-4-yl)carbamoyl)-4-morpholinobutane-1-sulfonamide, Potassium Salt]",2000 to 10000

# The next lines start with the values.
row,IC50 [nM],SMILES
1,2000 to 10000,"CC(C)N1CC2(COC(CS(=O)(=O)NC(=O)Nc3c4c(cc5c3CCC5)CCC4)C2)C1 (stereo not drawn) [Example 77, N-((1,2,3,5,6,7-Hexahydro-s-indacen-4-yl)carbamoyl)-1-(2-isopropyl-6-oxa-2-azaspiro[3.4]octan-7-yl)methanesulfonamide, Potassium Salt]"
2,2000 to 10000,"NCCCS(=O)(=O)NC(=O)Nc1c2c(cc3c1CCC3)CCC2 [Example 65, 3-Amino-N-((1,2,3,5,6,7-hexahydro-s-indacen-4-yl)carbamoyl) propane-1-sulfonamide potassium salt]"
3,1600 to 2000,"O=C(Nc1c2c(cc3c1CCC3)CCC2)NS(=O)(=O)C1(CN2CCC2)CC1 [Example 87, 1-(Azetidin-1-ylmethyl)-N-((1,2,3,5,6,7-hexahydro-s-indacen-4-yl)carbamoyl)cyclopropane-1-sulfonamide]"
4,2000 to 10000,"CCN(C(C)=O)C1CCC(S(=O)(=O)NC(=O)Nc2c3c(cc4c2CCC4)CCC3)CC1 (stereo not drawn) [Example 63, N-ethyl-N-(4-(N-((1,2,3,5,6,7-hexahydro-s-indacen-4-yl)carbamoyl)sulfamoyl)cyclohexyl)acetamide]"
5,2000 to 10000,"CN1CCC(CS(=O)(=O)NC(=O)Nc2c(-c3ccncc3)cc(F)c3c2CCC3)C1 (stereo not drawn) [Example 60, N-((7-Fluoro-5-(pyridin-4-yl)-2,3-dihydro-1H-inden-4-yl)carbamoyl)-1-(1-methylpyrrolidin-3-yl)methanesulfonamide]"
6,2000 to 10000,"O=C(Nc1c2c(cc3c1CCC3)CCC2)NS(=O)(=O)CC1CCN(C2COC2)C1 (stereo not drawn) [Example 64, N-((1,2,3,5,6,7-Hexahydro-s-indacen-4-yl)carbamoyl)-1-(1-(oxetan-3-yl)pyrrolidin-3-yl)methanesulfonamide, Potassium Salt]"
7,2000 to 10000,"CC(C)c1cc(F)cc(C(C)C)c1NC(=O)NS(=O)(=O)CCCN(C)C [Example 101, 3-(Dimethylamino)-N-((4-fluoro-2,6-diisopropylphenyl)carbamoyl)propane-1-sulfonamide]"
8,1600 to 2000,"CN(C)CCCCS(=O)(=O)NC(=O)Nc1c2c(cc3c1CCC3)CCC2 [Example 82, 4-(Dimethylamino)-N-((1,2,3,5,6,7-hexahydro-s-indacen-4-yl)carbamoyl)butane-1-sulfonamide]"
